# In patent US20140127288A1, “LIPOSOME CONTAINING PYRROLOQUINOLINE QUINONE AND SUGAR” (MITSUBISHI GAS CHEMICAL COMPANY, INC., priority 2011, published 2014):
# Tested on: Chinese hamster ovary cells (CHO-DHFR)
# Test: Proliferation study (WST assay)
# Format: cell-based
# Settings: vs cells treated with culture medium alone; one day incubation
# Description: Chinese hamster ovary cells (CHO-DHFR; obtained from Dainippon Sumitomo Pharma Co., Ltd.) was cultured in the culture medium, α-MEM+10% fetal calf serum, in an atmosphere of 5% CO2 at 37° C. A 96-well microplate (IWAKI & Co., Ltd.) was used and cells were added to each well at 5000 cells with 100 μl of the culture medium, and the microplate was incubated overnight. After removing the culture medium, a new culture medium containing the liposome composition prepared in Examples 1 to 4 and Comparative Examples 1 to 3 at a predetermined concentration was added to each well. After one day incubation, a test solution in a WST Assay Kit was reacted for 1 hour according to a procedure of the Kit (Dojindo Laboratories), and the absorbance of each well was measured at 450 nm. In WST Assay, the absorbance obtained is proportional to the number of live cells. The liposome compositions prepared in Examples 1 to 4 and Comparative Examples 1 to 3 and […] (for Comparative Example 4) were used as samples, and the samples were diluted by the culture medium and subjected to a test. The concentrations used in the test were 500, 250, 125, 62, 31, 16, 8, 4, 2, 1, 0.5, and 0 μM. In Comparative Example 2, the concentration of the liposome composition was used as the test concentration of the sample. The test was conducted for each sample twice and the average was calculated. […]
compound,measurement,value
"O=C(O)c1cc(C(=O)O)c2c(n1)C(=O)C(=O)c1cc(C(=O)O)[nH]c1-2 [Comparative Example 4, Pyrroloquinoline quinone disodium]",Concentration of growth inhibition (total cell number decreases by 10%),500 µM
